Measurements published in ChEMBL document CHEMBL3822442, “Synthesis and Pharmacological Characterization of Novel Glucagon-like Peptide-2 (GLP-2) Analogues with Low Systemic Clearance” (J Med Chem, 2016).
Activity calls are given as the source filed them. The rule behind the calls is not given here.

Tests used:
[1] = Systemic clearance in Sprague-Dawley rat at 0.2 mg/kg, iv through cassette dosing measured up to 300 mins by LC/MS/MS analysis; type: ADME, organism-based; settings: in vivo
[2] = biological target: Glucagon-like peptide 1 receptor (Homo sapiens, UniProt P43220); assay: Agonist activity at human GLP1R expressed in HEK293 cells after 5 hrs by luciferase reporter gene assay; type: cell-based
Chain of Glucagon-like peptide 1 receptor (P43220 whole entry): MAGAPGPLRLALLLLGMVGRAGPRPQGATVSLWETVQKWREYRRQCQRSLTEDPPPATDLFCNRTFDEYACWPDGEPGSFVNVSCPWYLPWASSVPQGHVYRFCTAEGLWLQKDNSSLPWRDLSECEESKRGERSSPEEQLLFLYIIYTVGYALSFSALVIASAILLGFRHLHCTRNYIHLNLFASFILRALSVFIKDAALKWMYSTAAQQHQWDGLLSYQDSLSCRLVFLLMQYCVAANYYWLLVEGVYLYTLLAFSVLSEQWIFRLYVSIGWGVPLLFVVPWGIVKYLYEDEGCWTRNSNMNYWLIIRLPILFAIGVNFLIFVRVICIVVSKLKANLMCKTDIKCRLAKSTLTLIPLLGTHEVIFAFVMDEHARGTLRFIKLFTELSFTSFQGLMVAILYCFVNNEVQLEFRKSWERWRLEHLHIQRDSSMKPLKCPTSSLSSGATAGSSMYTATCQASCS

HEK293 = assay: Selectivity ratio of EC50 for human GLP1R expressed in HEK293 cells to EC50 for human GLP2R expressed in HEK293; type: cell-based
[3] = biological target: T1, Glucagon-like peptide 2 receptor (Homo sapiens, UniProt O95838); assay: Agonist activity at human GLP2R expressed in HEK293 cells after 5 hrs by luciferase reporter gene assay; type: cell-based
T1 sequence (O95838 whole entry): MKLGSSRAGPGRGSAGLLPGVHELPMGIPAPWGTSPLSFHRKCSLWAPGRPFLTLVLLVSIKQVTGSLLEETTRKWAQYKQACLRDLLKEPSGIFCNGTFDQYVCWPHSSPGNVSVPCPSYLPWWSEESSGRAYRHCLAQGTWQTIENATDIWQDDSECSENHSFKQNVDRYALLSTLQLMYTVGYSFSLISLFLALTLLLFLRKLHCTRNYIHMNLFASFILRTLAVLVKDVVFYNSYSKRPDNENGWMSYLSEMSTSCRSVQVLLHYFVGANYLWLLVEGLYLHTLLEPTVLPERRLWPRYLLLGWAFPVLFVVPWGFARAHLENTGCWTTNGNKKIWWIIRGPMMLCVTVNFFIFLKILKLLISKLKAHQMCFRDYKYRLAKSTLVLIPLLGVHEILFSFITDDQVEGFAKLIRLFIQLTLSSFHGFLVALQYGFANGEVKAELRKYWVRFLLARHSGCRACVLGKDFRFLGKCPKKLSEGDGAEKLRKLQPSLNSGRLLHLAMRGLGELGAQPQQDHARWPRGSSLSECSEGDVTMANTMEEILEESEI

[4] = biological target: Glucagon receptor (Homo sapiens) (UniProt P47871); assay: Agonist activity at human GCGR expressed in HEK293 cells after 5 hrs by luciferase reporter gene assay; type: cell-based
Chain of Glucagon receptor (Homo sapiens) (P47871 whole entry): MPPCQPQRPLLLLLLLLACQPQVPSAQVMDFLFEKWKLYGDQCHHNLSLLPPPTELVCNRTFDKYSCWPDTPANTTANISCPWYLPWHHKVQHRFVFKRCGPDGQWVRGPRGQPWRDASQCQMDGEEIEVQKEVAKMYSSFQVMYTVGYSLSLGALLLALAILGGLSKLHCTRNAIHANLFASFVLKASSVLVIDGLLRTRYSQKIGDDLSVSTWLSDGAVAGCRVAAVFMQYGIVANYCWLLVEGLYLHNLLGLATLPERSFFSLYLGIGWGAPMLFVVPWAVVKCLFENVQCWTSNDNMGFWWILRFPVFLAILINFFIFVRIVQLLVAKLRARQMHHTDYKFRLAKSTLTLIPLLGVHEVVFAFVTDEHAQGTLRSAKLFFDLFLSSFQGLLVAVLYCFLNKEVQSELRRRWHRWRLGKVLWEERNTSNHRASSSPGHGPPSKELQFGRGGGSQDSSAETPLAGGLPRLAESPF

Row | SMILES | clearance [1] [mL/min/kg] | EC50 [2] [nM] | Ratio EC50 (HEK293) | EC50 [3] [nM] | Activity [4]
1 | CCCCC(NC(=O)[C@H](CCC(=O)O)NC(=O)[C@H](CC(=O)O)NC(=O)[C@H](CO)NC(=O)[C@H](Cc1ccccc1)NC(=O)[C@H](CO)NC(=O)CNC(=O)[C@H](CC(=O)O)NC(=O)CNC(=O)[C@@H](N)Cc1cnc[nH]1)C(=O)N[C@H](Cc1ccccc1)C(=O)N[C@H](C(=O)N[C@H](C(=O)N[C@@H](CC(C)C)C(=O)N[C@@H](CC(=O)O)C(=O)N[C@@H](CC(C)C)C(=O)N[C@@H](CC(C)C)C(=O)N[C@@H](C)C(=O)N[C@H](C(=O)N[C@@H](CCCNC(=N)N)C(=O)N[C@@H](CC(=O)O)C(=O)N[C@@H](Cc1ccccc1)C(=O)N[C@H](C(=O)N[C@@H](CC(N)=O)C(=O)N[C@@H](Cc1c[nH]c2ccccc12)C(=O)N[C@@H](CC(C)C)C(=O)N[C@H](C(=O)N[C@@H](CCC(N)=O)C(=O)N[C@H](C(=O)N[C@@H](CCCCN)C(N)=O)[C@@H](C)O)[C@@H](C)CC)[C@@H](C)CC)[C@@H](C)O)[C@@H](C)CC)[C@@H](C)O (some centres not stated) | 0.49 | 130 | 3200 | 0.04 | –
2 | CCCCC(NC(=O)[C@H](CCC(=O)O)NC(=O)[C@H](CC(=O)O)NC(=O)[C@H](CO)NC(=O)[C@H](Cc1ccccc1)NC(=O)[C@H](CO)NC(=O)CNC(=O)[C@H](CC(=O)O)NC(=O)CNC(=O)[C@@H](N)Cc1cnc[nH]1)C(=O)N[C@H](Cc1ccccc1)C(=O)N[C@H](C(=O)N[C@H](C(=O)N[C@@H](CC(C)C)C(=O)N[C@@H](CC(=O)O)C(=O)N[C@@H](CC(C)C)C(=O)N[C@@H](CC(C)C)C(=O)N[C@@H](C)C(=O)N[C@@H](C)C(=O)N[C@@H](CCCNC(=N)N)C(=O)N[C@@H](CC(=O)O)C(=O)N[C@@H](Cc1ccccc1)C(=O)N[C@H](C(=O)N[C@@H](CC(N)=O)C(=O)N[C@@H](Cc1c[nH]c2ccccc12)C(=O)N[C@@H](CC(C)C)C(=O)N[C@H](C(=O)N[C@@H](CCC(N)=O)C(=O)N[C@H](C(=O)N[C@@H](CCCCN)C(=O)N[C@H](C(=O)N[C@H](C(=O)N[C@@H](CC(=O)O)C(=O)NCCCOCCOCCOCCCNC(=O)COCC(N)=O)[C@@H](C)O)[C@@H](C)CC)[C@@H](C)O)[C@@H](C)CC)[C@@H](C)CC)[C@@H](C)CC)[C@@H](C)O (some centres not stated) | 0.28 | > 1000 | > 33000 | 0.03 | –
3 | CCCCC(NC(=O)[C@H](CCC(=O)O)NC(=O)[C@H](CC(=O)O)NC(=O)[C@H](CO)NC(=O)[C@H](Cc1ccccc1)NC(=O)[C@H](CO)NC(=O)CNC(=O)[C@H](CC(=O)O)NC(=O)CNC(=O)[C@@H](N)Cc1cnc[nH]1)C(=O)N[C@H](Cc1cccs1)C(=O)N[C@H](C(=O)N[C@H](C(=O)N[C@@H](CC(C)C)C(=O)N[C@@H](CC(=O)O)C(=O)N[C@@H](Cc1ccccc1)C(=O)N[C@@H](CC(C)C)C(=O)N[C@@H](C)C(=O)N[C@@H](C)C(=O)N[C@@H](CCCNC(=N)N)C(=O)N[C@@H](CC(=O)O)C(=O)N[C@@H](Cc1ccccc1)C(=O)N[C@H](C(=O)N[C@@H](CC(N)=O)C(=O)N[C@@H](Cc1c[nH]c2ccccc12)C(=O)N[C@@H](CC(C)C)C(=O)N[C@H](C(=O)N[C@@H](CCC(N)=O)C(=O)N[C@H](C(=O)N[C@@H](CCCCN)C(=O)N[C@H](C(=O)N[C@H](C(=O)N[C@@H](CC(=O)O)C(N)=O)[C@@H](C)O)[C@@H](C)CC)[C@@H](C)O)[C@@H](C)CC)[C@@H](C)CC)[C@@H](C)CC)[C@@H](C)O (some centres not stated) | 0.15 | > 1000 | > 14000 | 0.07 | –
4 | CCCCC(NC(=O)[C@H](CCC(=O)O)NC(=O)[C@H](CC(=O)O)NC(=O)[C@H](CO)NC(=O)[C@H](Cc1ccccc1)NC(=O)[C@H](CO)NC(=O)CNC(=O)[C@H](CC(=O)O)NC(=O)CNC(=O)[C@@H](N)Cc1cnc[nH]1)C(=O)N[C@H](Cc1ccccc1)C(=O)N[C@H](C(=O)N[C@H](C(=O)N[C@@H](CC(C)C)C(=O)N[C@@H](CC(=O)O)C(=O)N[C@@H](Cc1ccc(O)cc1)C(=O)N[C@@H](CC(C)C)C(=O)N[C@@H](C)C(=O)N[C@@H](C)C(=O)N[C@@H](CCCNC(=N)N)C(=O)N[C@@H](CC(=O)O)C(=O)N[C@@H](Cc1ccccc1)C(=O)N[C@H](C(=O)N[C@@H](CC(N)=O)C(=O)N[C@@H](Cc1c[nH]c2ccccc12)C(=O)N[C@@H](CC(C)C)C(=O)N[C@H](C(=O)N[C@@H](CCC(N)=O)C(=O)N[C@H](C(=O)N[C@@H](CCCCN)C(N)=O)[C@@H](C)O)[C@@H](C)CC)[C@@H](C)CC)[C@@H](C)CC)[C@@H](C)O (some centres not stated) | 0.48 | 90 | 1200 | 0.07 | –
5 | CCCCC(NC(=O)[C@H](CCC(=O)O)NC(=O)[C@H](CC(=O)O)NC(=O)[C@H](CO)NC(=O)[C@H](Cc1ccccc1)NC(=O)[C@H](CO)NC(=O)CNC(=O)[C@H](CC(=O)O)NC(=O)CNC(=O)[C@@H](N)Cc1cnc[nH]1)C(=O)N[C@H](Cc1cccs1)C(=O)N[C@H](C(=O)N[C@H](C(=O)N[C@@H](CC(C)C)C(=O)N[C@@H](CC(=O)O)C(=O)N[C@@H](CC(C)C)C(=O)N[C@@H](CC(C)C)C(=O)N[C@@H](C)C(=O)N[C@@H](C)C(=O)N[C@@H](CCCNC(=N)N)C(=O)N[C@@H](CC(=O)O)C(=O)N[C@@H](Cc1ccccc1)C(=O)N[C@H](C(=O)N[C@@H](CC(N)=O)C(=O)N[C@@H](Cc1c[nH]c2ccccc12)C(=O)N[C@@H](CC(C)C)C(=O)N[C@H](C(=O)N[C@@H](CCC(N)=O)C(=O)N[C@H](C(=O)N[C@@H](CCCCN)C(N)=O)[C@@H](C)O)[C@@H](C)CC)[C@@H](C)CC)[C@@H](C)CC)[C@@H](C)O (some centres not stated) | 0.33 | > 1000 | > 12000 | 0.08 | –
6 | CCCCC(NC(=O)[C@H](CCC(=O)O)NC(=O)[C@H](CC(=O)O)NC(=O)[C@H](CO)NC(=O)[C@H](Cc1ccccc1)NC(=O)[C@H](CO)NC(=O)CNC(=O)[C@H](CC(=O)O)NC(=O)CNC(=O)[C@@H](N)Cc1cnc[nH]1)C(=O)N[C@H](Cc1cccs1)C(=O)N[C@H](C(=O)N[C@H](C(=O)N[C@@H](CC(C)C)C(=O)N[C@@H](CC(=O)O)C(=O)N[C@@H](Cc1ccc(O)cc1)C(=O)N[C@@H](CC(C)C)C(=O)N[C@@H](C)C(=O)N[C@@H](C)C(=O)N[C@@H](CCCNC(=N)N)C(=O)N[C@@H](CC(=O)O)C(=O)N[C@@H](Cc1ccccc1)C(=O)N[C@H](C(=O)N[C@@H](CC(N)=O)C(=O)N[C@@H](Cc1c[nH]c2ccccc12)C(=O)N[C@@H](CC(C)C)C(=O)N[C@H](C(=O)N[C@@H](CCC(N)=O)C(=O)N[C@H](C(=O)N[C@@H](CCCCN)C(N)=O)[C@@H](C)O)[C@@H](C)CC)[C@@H](C)CC)[C@@H](C)CC)[C@@H](C)O (some centres not stated) | 0.52 | 70 | – | 0.07 | –
7 | CCCC[C@H](NC(=O)[C@H](CCC(=O)O)NC(=O)[C@H](CC(=O)O)NC(=O)[C@H](CO)NC(=O)[C@H](Cc1ccccc1)NC(=O)[C@H](CO)NC(=O)CNC(=O)[C@H](CC(=O)O)NC(=O)CNC(=O)[C@@H](N)Cc1cnc[nH]1)C(=O)N[C@@H](CC(N)=O)C(=O)N[C@H](C(=O)N[C@H](C(=O)N[C@@H](CC(C)C)C(=O)N[C@@H](CC(=O)O)C(=O)N[C@@H](Cc1ccc(Cl)cc1)C(=O)N[C@@H](CC(C)C)C(=O)N[C@@H](C)C(=O)N[C@@H](C)C(=O)N[C@@H](CCCNC(=N)N)C(=O)N[C@@H](CC(=O)O)C(=O)N[C@@H](Cc1ccccc1)C(=O)N[C@H](C(=O)N[C@@H](CC(N)=O)C(=O)N[C@@H](Cc1c[nH]c2ccccc12)C(=O)N[C@@H](CC(C)C)C(=O)N[C@H](C(=O)N[C@@H](CCC(N)=O)C(=O)N[C@H](C(=O)N[C@@H](CCCCN)C(N)=O)[C@@H](C)O)[C@@H](C)CC)[C@@H](C)CC)[C@@H](C)CC)[C@@H](C)O | 0.67 | > 1000 | – | 0.22 | –
8 | CCCCC(NC(=O)[C@H](CCC(=O)O)NC(=O)[C@H](CC(=O)O)NC(=O)[C@H](CO)NC(=O)[C@H](Cc1ccccc1)NC(=O)[C@H](CO)NC(=O)CNC(=O)[C@H](CC(=O)O)NC(=O)CNC(=O)[C@@H](N)Cc1cnc[nH]1)C(=O)N[C@H](CC(C)C)C(=O)N[C@H](C(=O)N[C@H](C(=O)N[C@@H](CC(C)C)C(=O)N[C@@H](CC(=O)O)C(=O)N[C@@H](CC(N)=O)C(=O)N[C@@H](CC(C)C)C(=O)N[C@@H](C)C(=O)N[C@@H](C)C(=O)N[C@@H](CCCNC(=N)N)C(=O)N[C@@H](CC(=O)O)C(=O)N[C@@H](Cc1ccccc1)C(=O)N[C@H](C(=O)N[C@@H](CC(N)=O)C(=O)N[C@@H](Cc1c[nH]c2ccccc12)C(=O)N[C@@H](CC(C)C)C(=O)N[C@H](C(=O)N[C@@H](CCC(N)=O)C(=O)N[C@H](C(=O)N[C@@H](CCCCN)C(N)=O)[C@@H](C)O)[C@@H](C)CC)[C@@H](C)CC)[C@@H](C)CC)[C@@H](C)O (some centres not stated) | – | – | – | – | inactive
